pEC50: −log10 of the molar value.
Columns and labels:
LPA mRNA = test: In vivo efficacy in LPA-HDI mouse model (liver LPA mRNA); set-up: species or system BALB/c mouse; conditions: 3 mg/kg single subcutaneous injection, Day 14, relative to PBS blank group, 4 mice per group
Description: The knockdown effect of the test double-stranded siRNA conjugate on the target gene LPA upon entry into the mouse is evaluated by rapid high-pressure injection of the physiological saline containing recombinant plasmid pcDNA-LPA carrying the target gene via the tail vein.
pcDNA-LPA plasmid, BALB/c mouse, PBS (phosphate buffer), and conjugates of the present invention.
Six-week-old female BALB/c mice were ordered and acclimated/quarantined for three days upon arrival in the animal room.
On Day 0, the mice were randomly grouped based on body weight data. After grouping, all mice were given a single administration via subcutaneous injection, with a dose volume of 10 mL/kg. Mice in Group 1 received PBS; mice in the other groups received the conjugates (dissolved in PBS).
On Day 13 post-administration, all mice were injected with normal saline containing the pcDNA-LPA plasmid via the tail vein within 5 seconds. The injection volume (mL) = mouse body weight (g) × 8%. The amount of plasmid injected per mouse was 10 µg.
On Day 14 post-administration, all groups of mice were euthanized by CO2 inhalation, and 2 liver samples were collected from each mouse. Liver samples were treated overnight with RNAlater at 4 °C, then RNAlater was removed, and stored at -80 °C for detection of LPA gene expression levels.

[1] = tested on: human LPA gene (Genbank number: NM_005577.4); test: Inhibitory activity against LPA mRNA, psiCHECK-2 dual-luciferase reporter vector in Huh7 cells; assay type: cell-based; conditions: Huh7 cells transfected with LPA_psiCHECK-2 plasmid, RNAiMAX transfection
Method in brief: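 Huh7 cells transfected with psiCHECK-2 carrying human LPA, then treated next day with compounds (3 concentrations) delivered by RNAiMAX. Dual-Glo readout of firefly and Renilla luciferase per well. Percent inhibition calculated from the reporter ratio relative to the RNAiMAX control.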

hPBMCs = test: Immunogenicity test in hPBMCs (IL-6 and TNF-α ELISA of supernatant); assay type: cell-based, human; conditions: donor 2 hPBMCs, 18-20 h
Description: 1 Experimental material • 1.1 Double-stranded siRNA conjugates • 1.2 hPBMCs, purchased from Shanghai Sailybio Medical Co., LTD. • 1.3 Main reagents: Penicillin-Streptomycin (Cat. No.: 15140122), RNase-free water (Cat. No.: AM9938), IL-6 ELISA kit (Cat. No.: 555220), TNF-α ELISA kit (Cat. No.: 555212), LPS (Cat. No.: L2630), etc. 2 Experimental method • 2.1 Compound Preparation: Compounds were prepared as stock solutions with enzyme-free water. Compound weight = powder weight * purity. The concentration of prepared solutions was 900 µg/mL, followed by three-fold serial dilution with enzyme-free water. Each concentration was diluted 10-fold with 1640 medium, resulting in a final enzyme-free water content of 5.0%. • 2.2 Experimental procedure: • 2.2.1 PBMC cells were resuscitated one day in advance and incubated overnight in 1640 complete medium. • 2.2.2 On the day of the experiment, PBMC cells were centrifuged at 300 × g for 8 minutes, and the cell density was adjusted to 1.6 × 10^6 mL with 1640 complete medium. The cells were then added to a 96-well plate, 125 µL per well, and incubated in a 37 °C, 5% CO2 incubator for 15 minutes. • 2.2.3 The diluted test compounds were added to the 96-well plate according to the plate map, all in duplicate, 125 µL for each well; the positive control group and the blank group were added with an equal volume of 1640 complete culture medium containing the same amount of enzyme-free water. • 2.2.4 After gently shaking, the well plates were incubated in an incubator at 37 °C for 18-20 h. The supernatant was collected by centrifugation, and secretions of TNF-α and IL-6 were detected by ELISA. • 2.2.5 Data were analyzed using GraphPad Prism 8 software. 3 Experimental results Table 10. IL-6 and TNF-α levels in the cell supernatant of donor 1 hPBMCs treated with different doses of test compounds

| Substance | % Downregulation of LPA mRNA (LPA mRNA) | pEC50 [1] | IL-6 (hPBMCs; 5 µg/mL) | TNF alpha (hPBMCs; 5 µg/mL) | IL-6 (hPBMCs; 15 µg/mL) | TNF alpha (hPBMCs; 15 µg/mL) | IL-6 (hPBMCs; 45 µg/mL) | TNF alpha (hPBMCs; 45 µg/mL) |
| --- | --- | --- | --- | --- | --- | --- | --- | --- |
| Z27: siRNA conjugate: sense SEQ ID NO:43, ligand D18 at 3' end of sense strand, antisense SEQ ID NO:66 (sense CAGCCCCTTATTGTTANACGA; antisense TCTCGTATNACAATAAGGGGCTG; ligand D18 at sense 3' end; listed as RNA; modified_base 1: mod_base = OTHER; note = 2'-O-methylcytidine; modified_base 2: mod_base = OTHER; note = 2'-O-methyladenosine; modified_base 3: mod_base = OTHER; note = 2'-O-methylguanosine; modified_base 4..7: mod_base = OTHER; note = 2'-O-me; note = 2'-O-methyluridine; modified_base 4: mod_base = OTHER; note = 2'-fluorocytidine; modified_base 5: mod_base = OTHER; note = 2'-O-methylg) | 92.2% | 9.02 |  |  |  |  |  |  |
| Z48: siRNA conjugate: sense SEQ ID NO:51, ligand D01 at 3' end of sense strand, antisense SEQ ID NO:84 (sense CCTGCCAAGCTTGGTCATCTA; antisense NAGATGNCCAAGCTTGGCNGGTT; ligand D01 at sense 3' end; listed as RNA; modified_base 1..2: mod_base = OTHER; note = 2'-O-methylcytidine; modified_base 3: mod_base = OTHER; note = 2'-O-methyluridine; modified_base 4: mod_base = OTHER; note = 2'-O-methylguanosine; modified_base 5..6: mod_base = OTHER; note = 2'-O-m; modified_base 1: mod_base = OTHER; note = n is B34; modified_base 2: mod_base = OTHER; note = 2'-deoxyadenosine; note = 2'-O-methyladenosine) | 64.0% | 10.05 | 32.0 pg/mL | 15.3 pg/mL | 49.5 pg/mL | 20.4 pg/mL | 1.1 pg/mL | 5.9 pg/mL |
| Z33: siRNA conjugate: sense SEQ ID NO:47, ligand D18 at 3' end of sense strand, antisense SEQ ID NO:72 (sense GCCCCTTATTGTTANACGA; antisense TCGTATNACAATAAGGGGCTGT; ligand D18 at sense 3' end; listed as RNA; modified_base 1: mod_base = OTHER; note = 2'-O-methylguanosine; modified_base 2: mod_base = OTHER; note = 2'-O-methylcytidine; modified_base 3..5: mod_base = OTHER; modified_base 6: mod_base = OTHER; note = 2'-O-met; note = E-type vinylphosphonate-modified 2'-O-methyluridine; note = 2'-fluorocytidine; modified_base 3: mod_base = OTHER; modified_base 4: mo) | 79.2% |  |  |  |  |  |  |  |
| Z34: siRNA conjugate: sense SEQ ID NO:48, ligand D18 at 3' end of sense strand, antisense SEQ ID NO:73 (sense CAGCCCCTTATTGTTANACGA; antisense TCGTATNACAATAAGGGGCNGTT; ligand D18 at sense 3' end; listed as RNA; modified_base 1: mod_base = OTHER; note = 2'-O-methylcytidine; modified_base 2: mod_base = OTHER; note = 2'-O-methyladenosine; modified_base 3: mod_base = OTHER; note = 2'-O-methylguanosine; modified_base 4..6: mod_base = OTHER; note = 2'-O-me; note = E-type vinylphosphonate-modified 2'-O-methyluridine; note = 2'-fluorocytidine; modified_base 4: mo) | 78.1% | 8.52 |  |  |  |  |  |  |
| Z47: siRNA conjugate: sense SEQ ID NO:51, ligand D01 at 3' end of sense strand, antisense SEQ ID NO:83 (sense CCTGCCAAGCTTGGTCATCTA; antisense NAGATGNCCAAGCTTGGCNGGTT; ligand D01 at sense 3' end; listed as RNA; modified_base 1..2: mod_base = OTHER; note = 2'-O-methylcytidine; modified_base 3: mod_base = OTHER; note = 2'-O-methyluridine; modified_base 4: mod_base = OTHER; note = 2'-O-methylguanosine; modified_base 5..6: mod_base = OTHER; note = 2'-O-m; modified_base 1: mod_base = OTHER; note = n is B33; modified_base 2: mod_base = OTHER; note = 2'-deoxyadenosine; note = 2'-O-methyladenosine) | 64.0% | 9.70 | 49.9 pg/mL | 15.6 pg/mL | 0.0 pg/mL | 3.4 pg/mL | 16.7 pg/mL | 9.5 pg/mL |
| Z32: siRNA conjugate: sense SEQ ID NO:47, ligand D18 at 3' end of sense strand, antisense SEQ ID NO:71 (sense GCCCCTTATTGTTANACGA; antisense TCGTATNACAATAAGGGGCTGT; ligand D18 at sense 3' end; listed as RNA; modified_base 1: mod_base = OTHER; note = 2'-O-methylguanosine; modified_base 2: mod_base = OTHER; note = 2'-O-methylcytidine; modified_base 3..5: mod_base = OTHER; modified_base 6: mod_base = OTHER; note = 2'-O-met; note = E-type vinylphosphonate-modified 2'-O-methyluridine; note = 2'-fluorocytidine; modified_base 3: mod_base = OTHER; modified_base 4: mo) | 86.4% | 9.68 |  |  |  |  |  |  |
| Z35: siRNA conjugate: sense SEQ ID NO:49, ligand D18 at 3' end of sense strand, antisense SEQ ID NO:74 (sense CAGCCCCTTATTGTTATACGA; antisense TCGTATNACAATAAGGGGCNGTT; ligand D18 at sense 3' end; listed as RNA; modified_base 1: mod_base = OTHER; note = 2'-O-methylcytidine; modified_base 2: mod_base = OTHER; note = 2'-O-methyladenosine; modified_base 3: mod_base = OTHER; note = 2'-O-methylguanosine; modified_base 4..7: mod_base = OTHER; note = 2'-O-me; note = E-type vinylphosphonate-modified 2'-O-methyluridine; note = 2'-deoxycytidine; modified_base 4: mod) | 92.3% | 9.85 |  |  |  |  |  |  |
